The values below come from PubChem BioAssay AID330 (DTP/NCI, 2004).

The assay deals with P388 leukemia ip, CD2F1 mice, survival T/C. The assay can be described thus: NCI In Vivo Anticancer Drug Screen. Data for tumor model P388 Leukemia (intraperitoneal) in CD2F1 (CDF1) mice. To be noted: endpoint: median survival time, higher = longer survival. In outline: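 Mice carrying the transplanted tumor received test compound or vehicle. Survival was recorded in each group, and the value is the treated-group measurement divided by that of the vehicle-treated control group.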

Where [1] appears, read: dose: 100.0 mg/kg/injection, schedule: Q04DX002 (ip), vehicle: saline with Tween-80.
Where [2] appears, read: dose: 50.0 mg/kg/injection, schedule: Q01DX009 (ip), vehicle: saline with Tween-80.
Where [3] appears, read: dose: 100.0 mg/kg/injection, schedule: Q01DX009 (ip), vehicle: saline with Tween-80.
Setting [4] is: dose: 200.0 mg/kg/injection, schedule: Q01DX009 (ip), vehicle: saline with Tween-80.
The mark [5] stands for this setting: dose: 60.0 mg/kg/injection, schedule: Q01DX005 (ip), vehicle: saline.
[6] abbreviates: dose: 120.0 mg/kg/injection, schedule: Q01DX005 (ip), vehicle: saline.
[7] abbreviates: dose: 240.0 mg/kg/injection, schedule: Q01DX005 (ip), vehicle: saline.
[8] abbreviates: dose: 60.0 mg/kg/injection, schedule: Q01DX005 (ip), vehicle: saline with Tween-80.
Where [9] appears, read: dose: 120.0 mg/kg/injection, schedule: Q01DX005 (ip), vehicle: saline with Tween-80.
The mark [10] stands for this setting: dose: 240.0 mg/kg/injection, schedule: Q01DX005 (ip), vehicle: saline with Tween-80.

Molecules are shown by their SMILES. Values joined by “and” are separate entries in the source; they are usually repeats but may differ in a detail not shown here. Equal values may be shown once. Toxic doses and inconclusive results are not listed.

As to `NC(C(=O)O)C(F)C(=O)O` (configuration not stated), the T/C was 109 % of control (dose: 10.0 mg/kg/injection, schedule: Q01DX009 (ip), vehicle: saline); 106 % of control (dose: 20.0 mg/kg/injection, schedule: Q01DX009 (ip), vehicle: saline); 100 % of control (dose: 40.0 mg/kg/injection, schedule: Q01DX009 (ip), vehicle: saline).

On to `CCn1c(O)c(N=O)c(=O)n(CC)c1=S`, for which the T/C (dose: 50.0 mg/kg/injection, schedule: Q04DX002 (ip), vehicle: saline with Tween-80) was 105 % of control and the T/C under setting [1] is 97 % of control.

Turning to `Cc1cc(C(C)CC(=O)O)c(C)c(C)c1C` (configuration not stated), the T/C by setting is: under setting [2], 96 % of control; under setting [3], 93 % of control; under setting [4], 108 % of control.

On to `c1ccc2c(c1)Nc1ccc(CN3CCOCC3)cc1S2`, for which the T/C by setting is: (dose: 60.0 mg/kg/injection, schedule: Q01DX005 (ip), vehicle: Klucel (hydroxypropylcellulose) (HPC)) 104 % of control; (dose: 120.0 mg/kg/injection, schedule: Q01DX005 (ip), vehicle: Klucel (hydroxypropylcellulose) (HPC)) 97 % of control; (dose: 240.0 mg/kg/injection, schedule: Q01DX005 (ip), vehicle: Klucel (hydroxypropylcellulose) (HPC)) 92 % of control.

On to `COc1nc(NC2OC(CO)C(O)C(O)C2O)c(Cl)c(=O)[nH]1` (configuration not stated), for which the T/C under setting [5] is 97 % of control, the T/C under setting [6] is 94 % of control and the T/C under setting [7] was 102 % of control.

As for `O=C(O)/C=N/NS(=O)(=O)c1cccc(S(=O)(=O)N/N=C/C(=O)O)c1`, the T/C (dose: 12.5 mg/kg/injection, schedule: Q01DX009 (ip), vehicle: water) was 119 % of control.

`Cc1c(CNc2ccc(C(=O)NC(CC(=O)O)C(=O)O)cc2)ccc2nc(N)nc(N)c12` (configuration not stated): the T/C (dose: 12.5 mg/kg/injection, schedule: Q04DX003 (ip), vehicle: saline with Tween-80) was 159 % of control and the T/C (dose: 16.5 mg/kg/injection, schedule: Q04DX003 (ip), vehicle: saline with Tween-80) is 200 % of control.

Turning to `Cc1ccc(S(=O)(=O)N(CCCc2c(Cl)nc(N)nc2-c2ccccc2)c2ccccc2)cc1`, the T/C is, setting by setting: under setting [8], 87 % of control; under setting [9], 87 % of control; under setting [10], 89 % of control.

As for `CS(C)(NC(N)=O)OS(=O)(=O)O`, the T/C runs as follows: under setting [5], 98 % of control; under setting [6], 98 % of control; under setting [7], 101 % of control.

For the compound `O=C1C(Cl)=C(N2CCN(C3=C(Cl)C(=O)c4ccccc4C3=O)CC2)C(=O)c2ccccc21`, the T/C by setting is: (dose: 1.5 mg/kg/injection, schedule: Q01DX009 (ip), vehicle: saline) 100 % of control and 104 % of control; (dose: 3.0 mg/kg/injection, schedule: Q01DX009 (ip), vehicle: saline) 100 % of control and 107 % of control; (dose: 6.0 mg/kg/injection, schedule: Q01DX009 (ip), vehicle: saline) 104 % of control and 97 % of control.

Take `[CH2-]N(CC)CC.[CH2-]N(CC)CC.[Rh].[Rh].[Rh].[c-]1[c-][c-][cH-][c-]1.[c-]1[c-][c-][cH-][c-]1.[c-]1[c-][c-][cH-][c-]1`: the T/C is 108 % of control and 96 % of control (dose: 6.25 mg/kg/injection, schedule: Q04DX002 (ip), vehicle: saline); 113 % of control and 115 % of control and 91 % of control (dose: 12.5 mg/kg/injection, schedule: Q04DX002 (ip), vehicle: saline); 99 % of control and 103 % of control and 113 % of control (dose: 25.0 mg/kg/injection, schedule: Q04DX002 (ip), vehicle: saline); 104 % of control and 91 % of control (dose: 50.0 mg/kg/injection, schedule: Q04DX002 (ip), vehicle: saline).

As to `COc1ccc(C(=O)/C(C)=C(/C)NCCC#N)c(OCc2ccccc2)c1OC`, the T/C runs as follows: (dose: 25.0 mg/kg/injection, schedule: Q01DX009 (ip), vehicle: other) 95 % of control; (dose: 50.0 mg/kg/injection, schedule: Q01DX009 (ip), vehicle: other) 91 % of control; (dose: 100.0 mg/kg/injection, schedule: Q01DX009 (ip), vehicle: other) 95 % of control; (dose: 200.0 mg/kg/injection, schedule: Q01DX009 (ip), vehicle: other) 100 % of control; (dose: 400.0 mg/kg/injection, schedule: Q01DX009 (ip), vehicle: other) 95 % of control.

For `CCOP(=S)(N/N=C/c1ccc2ccccc2c1O)OCC`, the T/C reads like this: (dose: 50.0 mg/kg/injection, schedule: Q01DX005 (ip), vehicle: Klucel (hydroxypropylcellulose) (HPC)) 109 % of control; (dose: 100.0 mg/kg/injection, schedule: Q01DX005 (ip), vehicle: Klucel (hydroxypropylcellulose) (HPC)) 106 % of control; (dose: 200.0 mg/kg/injection, schedule: Q01DX005 (ip), vehicle: Klucel (hydroxypropylcellulose) (HPC)) 95 % of control.

For `CCC(=N)C(c1ccccc1)(c1ccccc1)C(C)CN(C)C` (configuration not stated), the T/C by setting is: (dose: 15.0 mg/kg/injection, schedule: Q01DX005 (ip), vehicle: saline) 101 % of control; (dose: 30.0 mg/kg/injection, schedule: Q01DX005 (ip), vehicle: saline) 101 % of control; under setting [5], 100 % of control.

Turning to `Cc1ccc(NCCNCCO)c2c(=O)c3ccc(O)cc3sc12`, the T/C under setting [2] is 174 % of control.

For `O=C(CSc1nc2ccccc2[nH]1)NCCO`, the T/C under setting [8] was 98 % of control, the T/C under setting [9] is 97 % of control and the T/C under setting [10] was 100 % of control.

Consider `CC(C)NC(=O)OCc1c(COC(=O)NC(C)C)c(-c2ccc(Cl)c(Cl)c2)n2c1CSC2`, for which the T/C (dose: 25.0 mg/kg/injection, schedule: Q01DX005 (ip), vehicle: Klucel + Tween-80) is 91 % of control; the T/C (dose: 50.0 mg/kg/injection, schedule: Q01DX005 (ip), vehicle: Klucel + Tween-80) was 88 % of control; the T/C (dose: 100.0 mg/kg/injection, schedule: Q01DX005 (ip), vehicle: Klucel + Tween-80) was 87 % of control and 92 % of control; the T/C (dose: 200.0 mg/kg/injection, schedule: Q01DX005 (ip), vehicle: Klucel + Tween-80) was 86 % of control and 88 % of control; the T/C (dose: 400.0 mg/kg/injection, schedule: Q01DX005 (ip), vehicle: Klucel + Tween-80) is 89 % of control.

Regarding `COC1=CC(=O)C(=O)C=C1C(C)(C)C`, the T/C is 107 % of control (dose: 2.8 mg/kg/injection, schedule: Q01DX005 (ip), vehicle: saline with Tween-80); 100 % of control (dose: 5.6 mg/kg/injection, schedule: Q01DX005 (ip), vehicle: saline with Tween-80); 107 % of control (dose: 11.25 mg/kg/injection, schedule: Q01DX005 (ip), vehicle: saline with Tween-80); 98 % of control and 115 % of control (dose: 22.5 mg/kg/injection, schedule: Q01DX005 (ip), vehicle: saline with Tween-80); 91 % of control and 96 % of control (dose: 45.0 mg/kg/injection, schedule: Q01DX005 (ip), vehicle: saline with Tween-80).

As to `COc1cccc(/C=N/C(/N=C/c2cccc(OC)c2O)c2cccc(OC)c2O)c1O`, the T/C was 97 % of control under setting [8], 97 % of control under setting [9] and 102 % of control under setting [10].

As to `O=C1NC(=O)C2(CCC(O)C2)c2ccncc21` (configuration not stated), the T/C (dose: 0.12 mg/kg/injection, schedule: Q01DX009 (ip), vehicle: saline + Tween-80 + alcohol) is 103 % of control; the T/C (dose: 0.25 mg/kg/injection, schedule: Q01DX009 (ip), vehicle: saline + Tween-80 + alcohol) is 100 % of control; the T/C (dose: 0.5 mg/kg/injection, schedule: Q01DX009 (ip), vehicle: saline + Tween-80 + alcohol) is 103 % of control; the T/C (dose: 1.0 mg/kg/injection, schedule: Q01DX009 (ip), vehicle: saline + Tween-80 + alcohol) is 100 % of control and 120 % of control; the T/C (dose: 1.4 mg/kg/injection, schedule: Q01DX009 (ip), vehicle: saline + Tween-80 + alcohol) was 117 % of control.

`CSC(=S)n1nc(-c2ccccc2)c(N=Nc2cccc(C)c2C)c1-c1ccccc1`: the T/C was 90 % of control under setting [1]; 89 % of control (dose: 200.0 mg/kg/injection, schedule: Q04DX002 (ip), vehicle: saline with Tween-80); 102 % of control (dose: 400.0 mg/kg/injection, schedule: Q04DX002 (ip), vehicle: saline with Tween-80).

As to `Cn1cc(/C=C/[N+](=O)[O-])c2ccc(OCc3ccccc3)cc21`, the T/C was 105 % of control (dose: 100.0 mg/kg/injection, schedule: Q04DX003 (ip), vehicle: Klucel (hydroxypropylcellulose) (HPC)); 95 % of control (dose: 200.0 mg/kg/injection, schedule: Q04DX003 (ip), vehicle: Klucel (hydroxypropylcellulose) (HPC)); 97 % of control (dose: 400.0 mg/kg/injection, schedule: Q04DX003 (ip), vehicle: Klucel (hydroxypropylcellulose) (HPC)).

In the case of `COC1/C=C/OC2(C)Oc3c(C)c(O)c4c(O)c(c(/C=N/N5C(C)CN(Cc6cccc(O)c6)CC5C)c(O)c4c3C2=O)NC(=O)/C(C)=C\C=C\C(C)C(O)C(C)C(O)C(C)C(OC(C)=O)C1C` (configuration not stated), the T/C is 102 % of control under setting [2], 100 % of control under setting [3] and 118 % of control under setting [4].
